In patent US20060235222A1, “Indole-derivative modulators of steroid hormone nuclear receptors” (ELI LILLY AND COMPANY, priority 2003, published 2006):

Experiments:
human MR = target: T1, human MR (Homo sapiens, UniProt P08235); experiment: Mineralocorticoid Receptor Binding Assay (Method 1), [3H]-aldosterone competition; conditions: 0.5 nM [3H]-aldosterone, human MR expressed in Sf9 cells
T1 construct: The full length human MR gene is cloned from a human kidney or human brain cDNA library; inferred from own knowledge of the pAcHLT vector (N); made in house; host or cells: Sf9 insect cells (baculovirus)
T1 sequence (P08235 1-984): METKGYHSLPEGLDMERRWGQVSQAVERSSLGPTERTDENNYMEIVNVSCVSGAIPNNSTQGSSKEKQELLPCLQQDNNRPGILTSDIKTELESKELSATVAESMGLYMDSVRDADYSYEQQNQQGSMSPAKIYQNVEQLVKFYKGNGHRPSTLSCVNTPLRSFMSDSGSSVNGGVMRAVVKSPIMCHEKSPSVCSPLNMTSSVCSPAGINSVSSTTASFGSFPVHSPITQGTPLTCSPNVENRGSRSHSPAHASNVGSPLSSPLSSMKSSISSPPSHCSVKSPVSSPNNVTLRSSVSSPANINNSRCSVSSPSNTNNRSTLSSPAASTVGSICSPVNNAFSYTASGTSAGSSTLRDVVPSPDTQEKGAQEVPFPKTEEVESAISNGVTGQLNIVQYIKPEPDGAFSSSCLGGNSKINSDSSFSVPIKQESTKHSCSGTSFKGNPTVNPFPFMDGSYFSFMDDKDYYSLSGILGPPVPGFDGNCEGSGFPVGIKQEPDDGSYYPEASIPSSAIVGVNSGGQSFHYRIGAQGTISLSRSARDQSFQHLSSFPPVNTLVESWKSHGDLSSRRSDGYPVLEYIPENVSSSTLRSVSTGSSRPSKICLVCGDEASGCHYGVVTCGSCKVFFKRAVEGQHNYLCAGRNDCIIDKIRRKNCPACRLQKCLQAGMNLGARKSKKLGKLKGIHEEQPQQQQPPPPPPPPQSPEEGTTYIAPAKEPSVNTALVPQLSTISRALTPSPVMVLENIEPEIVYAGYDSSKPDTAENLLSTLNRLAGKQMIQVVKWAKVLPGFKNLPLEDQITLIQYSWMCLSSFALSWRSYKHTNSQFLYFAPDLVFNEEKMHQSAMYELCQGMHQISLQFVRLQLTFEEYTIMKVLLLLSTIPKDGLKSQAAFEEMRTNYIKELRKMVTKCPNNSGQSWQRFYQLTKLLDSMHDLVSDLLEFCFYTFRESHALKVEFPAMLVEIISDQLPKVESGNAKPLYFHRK
Procedure: Mineralocorticoid Receptor Binding Assay (Method 1):
The full length human MR gene is cloned from a human kidney or human brain cDNA library. […] The PCR reaction is performed in a final volume of 50 μl containing about 1 μl of a 50× stock solution of polymerase; about 1 μl of a 50× stock solution of dNTP; about 5 μl of an appropriate PCR buffer; about 1 μl of each primer; about 5 μl of a H. kidney or H. brain cDNA library; and about 36 μl of water. The reaction is allowed to denature for about 30 seconds at 95 degrees Celsius, anneal for about 30 seconds at 55 degrees Celsius, and extend for about 5 minutes at 72 degrees Celsius, the sequence being repeated for a total of about 35 cycles. […] To extract the cDNA product from the agarose gel, the QIAEX II Gel Extraction protocol (QIAGEN, Inc.) is employed according to the manufacturer's instructions. Following extraction, the MR cDNA is cloned into an appropriate cloning vector (Zero Blunt TOPO PCR Cloning Kit (Invitrogen, Inc.) and a pAcHLT-baculovirus transfer vector (B.D./Pharminogen), then expressed in SF9 insect cells, essentially according to manufacturer's instructions. Sf9 cells are grown at a scale where gram quantity cell pellets are obtained for subsequent use in the MR binding assay. Harvested cell pellets are lysed by repeated freeze-thaw cycles (about 4) in a suitable lysis buffer then centrifuged at about 1×10^3 G (with the supernatant being saved for future assays).
MR binding assays are performed in a final total volume of about 250 μl containing about 20-25 μg of protein and 0.5 nM of [^3H]-aldosterone plus varying concentrations of test compound or vehicle. The assay binding buffer consists of 30 mM sodium molybdate, 30 mM of TRIS-HCl, 5 mM sodium phosphate, 5 mM sodium pyrophosphate, and about 10% glycerol, pH=7.5.
Incubations are carried out at 4 degrees Celsius with shaking for about 16 hours. 200 μl aliquots of each incubation are filtered onto Millipore HA 0.45 micron 96-well filter plates, pre-moistened with cold 30 mM TRIS-HCl. The filter plates are suctioned dry with vacuum and immediately washed 3× with cold 30 mM TRIS-HCl. The plates are then punched out and the amount of receptor-ligand complex is determined by liquid scintillation counting using 4 ml of Ready Protein Plus™ liquid scintillation cocktail.

glucocorticoid receptor = target: T2, glucocorticoid receptor (Homo sapiens, UniProt P04150); experiment: Glucocorticoid Receptor Binding Assay (Method 1), [3H]-dexamethasone competition, A549 cell extract; conditions: 1.86 nM [3H]-dexamethasone, read-out: GR Ki (nM) Method 1
T2 construct: containing 50-200 ug of A549 cell extract and 1.86 nM; host or cells: A549 human lung epithelial cells
T2 sequence (P04150 1-777): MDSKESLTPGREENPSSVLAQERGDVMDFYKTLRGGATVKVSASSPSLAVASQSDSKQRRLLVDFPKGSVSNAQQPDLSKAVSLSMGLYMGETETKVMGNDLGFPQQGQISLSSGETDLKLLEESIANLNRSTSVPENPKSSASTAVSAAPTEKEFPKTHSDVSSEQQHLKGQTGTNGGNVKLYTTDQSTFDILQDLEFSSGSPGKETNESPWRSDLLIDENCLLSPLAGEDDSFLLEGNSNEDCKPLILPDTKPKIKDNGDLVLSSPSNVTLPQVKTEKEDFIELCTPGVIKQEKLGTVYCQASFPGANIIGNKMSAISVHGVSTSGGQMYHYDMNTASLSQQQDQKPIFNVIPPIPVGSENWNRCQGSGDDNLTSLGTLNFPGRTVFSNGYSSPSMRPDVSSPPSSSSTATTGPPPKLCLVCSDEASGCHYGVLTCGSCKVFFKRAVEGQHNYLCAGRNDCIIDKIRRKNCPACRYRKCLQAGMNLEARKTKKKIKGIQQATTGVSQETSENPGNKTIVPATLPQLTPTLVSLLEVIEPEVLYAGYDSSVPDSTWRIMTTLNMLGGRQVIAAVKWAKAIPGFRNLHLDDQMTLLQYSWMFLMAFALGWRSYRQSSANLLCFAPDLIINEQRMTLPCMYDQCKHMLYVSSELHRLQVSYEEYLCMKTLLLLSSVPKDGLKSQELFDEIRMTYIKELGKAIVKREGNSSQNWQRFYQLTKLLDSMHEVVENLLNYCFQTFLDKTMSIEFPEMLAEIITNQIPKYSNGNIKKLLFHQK
Procedure: Glucocorticoid Receptor Binding Assay (Method 1):
A549 human lung epithelial cells (ATCC) are grown at a scale where gram quantity cell pellets are obtained. Harvested cell pellets are washed twice in cold phosphate buffered saline, centrifuged, and resuspended in cold assay binding buffer. The assay binding buffer consists of 10% glycerol, 50 mM Tris-HCl (pH7.2), 75 mM sodium chloride, 1.5 mM magnesium chloride, 1.5 mM EDTA, and 10 mM sodium molybdate. Cell suspensions were lysed via sonication, centrifuged, and the “extract” supernatant is snap frozen and stored at −80 C until needed.
Incubations are carried out at 4 degrees Celsius for 16 hours. After incubation, 70 ul of 3× dextran-coated charcoal solution is added to each reaction, mixed, and incubated for 8 minutes at RT. 3×-dextran-coated charcoal solution consists of 250 ml assay binding buffer, 3.75 g Norit A charcoal (Sigma), and 1.25 g dextran T-70 (Amersham). Charcoal/unbound radioligand complexes are removed by centrifugation of the plate and 140 ul of supernatant from each well is transferred to another 96 well Optiplate (Packard Instruments). 200 ul of Microscint-20 scinillant (Packard Instruments) is added to each well and amount of receptor bound radioligand is determined using Packard Instruments TopCount instrument.

Compound	Ki (human MR) [nM]	Ki (glucocorticoid receptor) [nM]
CCC(CC)(c1ccccc1)c1c[nH]c2c(NS(C)(=O)=O)cccc12 [Example 61, N-[3-(1-Ethyl-1-phenyl-propyl)-1H-indol-7-yl]-methanesulfonamide]	< 500	< 500
CCC(CC)(c1ccc(C)cc1F)c1c[nH]c2c(NS(C)(=O)=O)cccc12 [Example 57, N-{3-[1-Ethyl-1-(2-fluoro-4-methyl-phenyl)-propyl]-1H-indol-7-yl}-methanesulfonamide]	< 500	< 500
CCc1cccc2c(C(C)(c3ccc(O)cc3)c3ccc(F)cc3)c[nH]c12 (centres unmarked) [Example 27, 4-[1-(7-Ethyl-1H-indole-3-yl)-1-(4-fluoro-phenyl)-ethyl]-phenol]	< 500	< 1000
CCC(CC)(c1cc2ccccc2s1)c1c[nH]c2c(NS(C)(=O)=O)cccc12 [Example 6, N-[3-(1-Benzo[b]thiophen-2-yl-1-ethyl-propyl)-1H-indol-7-yl]-methanesulfonamide]	< 500	< 500
CC(C)(c1cccc(-c2ccc(F)cc2)c1)c1c[nH]c2c(NS(C)(=O)=O)cccc12 [Example 36, N-{3-[1-(4′-Fluoro-biphenyl-3-yl)-1-methyl-ethyl]-1H-indol-7-yl}-methanesulfonamide]	< 500	< 10000
CC(C)(c1ccc(F)cc1)c1c[nH]c2c(NS(C)(=O)=O)cccc12 [Example 76, N-{3-[1-(4-Fluoro-phenyl)-1-methyl-ethyl]-1H-indol-7-yl}-methanesulfonamide]	< 500	< 500
CC(c1ccccc1)(c1ccccc1)c1cn(CC(=O)O)c2ccccc12 [Example 42, [3-(1,1-Diphenyl-ethyl)-indol-1-yl]-acetic acid]	< 10000	< 10000
CC(C)(c1ccc2ncccc2c1)c1c[nH]c2c(NS(C)(=O)=O)cccc12 [Example 47, N-[3-(1-Methyl-1-quinolin-6-yl-ethyl)-1H-indol-7-yl]-methanesulfonamide]	< 500	< 500
CCCC(C)(c1ccc(OC)cc1)c1c[nH]c2c(NS(C)(=O)=O)cccc12 (centres unmarked) [Example 45, N-{3-[1-(4-Methoxy-phenyl)-1-methyl-butyl]-1H-indol-7-yl}-methanesulfonamide]	< 500	< 500
CCC(CC)(c1ccc(O)cc1)c1c[nH]c2c(NS(C)(=O)=O)cccc12 [Example 18, N-{3-[1-Ethyl-1-(4-hydroxy-phenyl)-propyl]-1H-indol-7-yl}-methanesulfonamide]	< 500	< 500
CCC(CC)(c1ccc([S@+](C)[O-])cc1)c1c[nH]c2c(NS(C)(=O)=O)cccc12 (stereo in doubt) [Example 49, N-{3-[1-Ethyl-1-(4-methanesulfinyl-phenyl)-propyl]-1H-indol-7-yl}-methanesulfonamide]	< 500	< 500
CCC(CC)(c1ccc(Cl)cc1)c1c[nH]c2c(NS(C)(=O)=O)cccc12 [Example 56, N-{3-[1-(4-Chloro-phenyl)-1-ethyl-propyl]-1H-indol-7-yl}-methanesulfonamide]	< 500	< 500
CCCC(C)(c1ccccc1)c1c[nH]c2c(NS(C)(=O)=O)cccc12 (centres unmarked) [Example 70, N-[3-(1-Methyl-1-phenyl-butyl)-1H-indol-7-yl]-methanesulfonamide]	< 500	< 500
CCCC(C)(c1cccc(OC)c1)c1c[nH]c2c(NS(C)(=O)=O)cccc12 (centres unmarked) [Example 46, N-{3-[1-(3-Methoxy-phenyl)-1-methyl-butyl]-1H-indol-7-yl}-methanesulfonamide]	< 500	< 500
CCCC(C)(c1ccc(OC(F)(F)F)cc1)c1c[nH]c2c(NS(C)(=O)=O)cccc12 (centres unmarked) [Example 43]	< 500	< 1000
CCC(CC)(c1ccc(F)cc1)c1c[nH]c2c(N)cccc12 [Example 79, 3-[1-Ethyl-1-(4-fluoro-phenyl)-propyl]-1H-indol-7-ylamine]	< 500	< 1000
CCC(CC)(c1ccc(OCc2ccccc2)cc1)c1c[nH]c2c(NS(C)(=O)=O)cccc12 [Example 17, N-{3-[1-(4-Benzyloxy-phenyl)-1-ethyl-propyl]-1H-indol-7-yl}-methanesulfonamide]	< 500	< 500
CCCC(C)(c1ccc(F)cc1)c1c[nH]c2c(NS(C)(=O)=O)cccc12 (centres unmarked) [Example 7, N-{3-[1-(4-Fluoro-phenyl)-1-methyl-butyl]-1H-indol-7-yl}-methanesulfonamide]	< 500	< 500
CC(C)(c1ccc2c(c1)CCO2)c1c[nH]c2c(NS(C)(=O)=O)cccc12 [Example 22, N-{3-[1-(2,3-Dihydro-benzofuran-5-yl)-1-methyl-ethyl]-1H-indol-7-yl}-methanesulfonamide]	< 500	< 500
